Series [1] has as its system dermal fibroblasts. The experiment in a line: De novo hyaluronan molecular weight ([3H]-glucosamine incorporation, gel filtration). The format is cell-based, human. The note with it: PEP005 0.01-10 μg/ml, presence or absence of TGF-β1, day 1 and day 3. As to the method: Hyaluronan molecular weight sizing, following dermal fibroblast synthesis, was performed as previously described (Meran et al, 2008; Simpson et al, 2009). Dermal fibroblasts were seeded in 6-well tissue culture plates, in PEP005-free, Fibroblast-Serum Containing Medium (2 ml), at 1.5×10^5 cells/well. Dermal fibroblasts were maintained at 37° C., in a 5% CO2/95% air atmosphere, for 48 h, prior to washing in phosphate buffered saline (PBS, 2×2 ml) and maintenance in serum-free, Fibroblast-Serum Containing Medium (2 ml), for a further 48 h. At 48 h, the serum-free, Fibroblast-Serum Containing Medium was replenished with serum-free, Fibroblast-Serum Containing Medium (2 ml), containing 0 μg/ml, 0.01 μg/ml, 0.1 μg/ml, 1 μg/ml, 10 μg/ml or 100 μg/ml PEP005, +/−TGF-β1 (10 ng/ml) (three culture wells per PEP005 concentration), in addition to [^3H]-glucosamine (20 μCi/ml, G.E. Healthcare). The dermal fibroblasts were maintained at 37° C., in a 5% CO2/95% air atmosphere, for 24 h or 72 h. […]
Aliquots (20 μl×3) of each Extract fraction were transferred into scintillation vials, followed by the addition of 70% ethanol (600 μl) and liquid scintillant (4 ml). Scintillation vials were vortexed and [^3H]-incorporation quantified using a Packard Tri-Carb 1900CA Liquid Scintillation Analyzer (Perkin Elmer), with values obtained being expressed as disintegrations per minute (dpm). […]

Series [2] can be described thus: Stability of PEP005/DMSO stock solution. As to conditions: 10 mg/ml in DMSO, stored at 4° C. In kind it is physicochemical. As to the method:
PEP005, obtained from Peplin in 20 mg batches, was stored at 4° C. When required, the PEP005 was solubilized in dimethyl sulphoxide (DMSO, >99.9%, Sigma Chemical Company, Dorset, U.K.), at a concentration of 10 mg/ml. […] Prior to use, the PEP005/DMSO stock solution was removed from 4° C. storage and warmed to room temperature. The required volumes of PEP005/DMSO were aliquoted into a poly-propylene vessel and the PEP005/DMSO diluted to the required concentration (typically 0.01 μg/ml, 0.1 μg/ml, 1 μg/ml, 10 μg/ml and 100 μg/ml) in Fibroblast-Serum Containing Medium (for dermal fibroblast cultures, Section 3.1), with fresh PEP005/culture medium solutions being prepared daily, at the various concentrations above, due to solution stability. Prior to discarding PEP005/culture medium solutions, at least two volumes of 0.1% sodium hydroxide (Sigma Chemical Company), in 95% ethanol/5% methanol (both from Thermo Fisher Scientific, Leicestershire, U.K.), was added to each solution, to deactivate.

In the case of `C/C=C(/C)C(=O)O[C@H]1C(C)=C[C@]23C(=O)[C@@H](C=C(CO)[C@@H](O)[C@]12O)[C@H]1[C@@H](C[C@H]3C)C1(C)C` [PEP005, ingenol-3-angelate], the “molecular weight of hyaluronan synthesized” value in series [1] is “predominantly of high (>1.5×10^6 Da) and medium (<1.5×10^6-4×10^5 Da) molecular weight”. Further, the “stability of PEP005/DMSO stock solution” value in series [2] was “stable for several months”.

These data come from patent publication US10143638B2, “Method of treating skin with ingenol mebutate” (LEO Laboratories Limited, priority 2009, dated 2018).
